# Data taken from patent US9080214B2, “Genetic markers for efficacy of iloperidone in the treatment of psychotic symptoms” (Vanda Pharmaceuticals, Inc., priority 2007, dated 2015).
# Test system: individuals diagnosed with schizophrenia
# Assay: Change in PANSS-GP subscale by SNP genotype, patients on iloperidone 24 mg/day b.i.d. for 28 days (MMRM)
# Format: in vivo, human
# Description: Earlier studies investigated an association between a polymorphism in the CNTF gene and iloperidone efficacy as well as associations between CYP2D6 and KCNQ1 genotypes and changes in QT interval following the administration of iloperidone. The present study involved the genotyping of DNA samples collected from 426 individuals diagnosed with schizophrenia in an attempt to identify additional SNPs associated with iloperidone efficacy. Each sample was genotyped at more than 500,000 SNP loci using the GeneChip® Human Mapping 500K Array Set (Affymetrix, Santa Clara, Calif.) and using assays developed in-house. Approximately half of the participants in the study were administered 24 mg/day of iloperidone, b.i.d., for 28 days. About 25% of the patients were administered ziprasidone. The remaining participants were administered a placebo. Three analyses of the PANSS-T were conducted. 1) A two-step approach where samples were randomly split into 2 groups of iloperidone-treated patients used to discover SNPs associated with changed in PANSS-T (Discovery phase) and a second group to confirm the 100 most significant SNPs (Confirmatory phase). 2) A one-step approach using the Last Observation Carried Forward (LOCF) PANSS-T data of all iloperidone-treated patients. For each SNP, the most parsimonious genetic model (e.g., homozygous for one allele v. all other genotypes [i.e., AA v. AB and BB], heterozygous v. homozygous [i.e., AB v. AA and BB]) was established with respect to iloperidone efficacy using a one-way analysis of variance (ANOVA). 3) A Mixed-effects Model Repeated Measures (MMRM) analysis was subsequently conducted using the best genetic model of each SNP in the MMRM model. MMRM analyses were also conducted with the PANSS subscales PANSS-P, PANSS-N, and PANSS-GP. The SNPs with a statistically significant association in all 3 analyses of PANSS-T, as well as the best of each analysis were considered significant findings and are listed below in Table 1. Results for each of these SNPs with the PANSS-T scales and with the three subscales PANSS-P, PANSS-N, and PANSS-GP are shown in Tables 2, 3, 4, and 5, respectively. […] In the present case of iloperidone efficacy, it is likely that different markers are more specifically associated with one or a few specific clinical symptoms, which is reflected in the improvement measured in separate subscales.
smiles,measurement,setting,value
"COc1cc(C(C)=O)ccc1OCCCN1CCC(c2noc3cc(F)ccc23)CC1 [iloperidone, 1-[4-[3-[4-(6-fluoro-1,2-benzisoxazol-3-yl)-1-piperidinyl]propoxy]-3-methoxyphenyl]ethanone]",mean of change in PANSS-GP,SNP_A-1819750 (CREG1) genotype A_A,−8.04
same,mean of change in PANSS-GP,SNP_A-1819750 (CREG1) genotype A_B* (lowest response),−4.58
same,mean of change in PANSS-GP,SNP_A-1819750 (CREG1) genotype B_B,−6.81
same,mean of change in PANSS-GP,SNP_A-1819750 (CREG1) genotype nonAB** (highest response),−7.21
same,mean of change in PANSS-GP,SNP_A-1860353 (RAP1B) genotype A_A** (highest response),−17.20
same,mean of change in PANSS-GP,SNP_A-1860353 (RAP1B) genotype A_B,−5.17
same,mean of change in PANSS-GP,SNP_A-1860353 (RAP1B) genotype B_B,−4.96
same,mean of change in PANSS-GP,SNP_A-1860353 (RAP1B) genotype nonAA* (lowest response),−5.00
same,mean of change in PANSS-GP,SNP_A-1934663 genotype A_A,−9.38
same,mean of change in PANSS-GP,SNP_A-1934663 genotype A_B,−8.80
same,mean of change in PANSS-GP,SNP_A-1934663 genotype B_B* (lowest response),−3.07
same,mean of change in PANSS-GP,SNP_A-1934663 genotype nonBB** (highest response),−8.92
same,mean of change in PANSS-GP,SNP_A-1973093 (KIAA0040) genotype A_A,−6.40
same,mean of change in PANSS-GP,SNP_A-1973093 (KIAA0040) genotype A_B* (lowest response),−1.92
same,mean of change in PANSS-GP,SNP_A-1973093 (KIAA0040) genotype B_B,−7.77
same,mean of change in PANSS-GP,SNP_A-1973093 (KIAA0040) genotype nonAB** (highest response),−7.51
same,mean of change in PANSS-GP,SNP_A-1975928 (SLC2A9) genotype A_A,−5.82
same,mean of change in PANSS-GP,SNP_A-1975928 (SLC2A9) genotype A_B,−5.39
same,mean of change in PANSS-GP,SNP_A-1975928 (SLC2A9) genotype B_B* (lowest response),9.62
same,mean of change in PANSS-GP,SNP_A-1975928 (SLC2A9) genotype nonBB** (highest response),−5.72
same,mean of change in PANSS-GP,SNP_A-1987915 (GPR126) genotype A_A,−4.63
same,mean of change in PANSS-GP,SNP_A-1987915 (GPR126) genotype A_B,−4.28
same,mean of change in PANSS-GP,SNP_A-1987915 (GPR126) genotype B_B** (highest response),−7.14
same,mean of change in PANSS-GP,SNP_A-1987915 (GPR126) genotype nonBB* (lowest response),−4.36
same,mean of change in PANSS-GP,SNP_A-2007721 (LOC58486) genotype A_A,−2.52
same,mean of change in PANSS-GP,SNP_A-2007721 (LOC58486) genotype A_B** (highest response),−10.51
same,mean of change in PANSS-GP,SNP_A-2007721 (LOC58486) genotype B_B,−3.91
same,mean of change in PANSS-GP,SNP_A-2007721 (LOC58486) genotype nonAB* (lowest response),−3.90
same,mean of change in PANSS-GP,SNP_A-2044214 (HNT) genotype A_A,−6.83
same,mean of change in PANSS-GP,SNP_A-2044214 (HNT) genotype A_B* (lowest response),−3.34
same,mean of change in PANSS-GP,SNP_A-2044214 (HNT) genotype B_B,−5.68
same,mean of change in PANSS-GP,SNP_A-2044214 (HNT) genotype nonAB** (highest response),−6.43
same,mean of change in PANSS-GP,SNP_A-2048427 (NPAS3) genotype A_A,−9.50
same,mean of change in PANSS-GP,SNP_A-2048427 (NPAS3) genotype A_B,−9.79
same,mean of change in PANSS-GP,SNP_A-2048427 (NPAS3) genotype B_B* (lowest response),−3.44
same,mean of change in PANSS-GP,SNP_A-2048427 (NPAS3) genotype nonBB** (highest response),−9.75
same,mean of change in PANSS-GP,SNP_A-2070454 (NKX2-5) genotype A_A,−3.91
same,mean of change in PANSS-GP,SNP_A-2070454 (NKX2-5) genotype A_B,−4.34
same,mean of change in PANSS-GP,SNP_A-2070454 (NKX2-5) genotype B_B** (highest response),−8.12
same,mean of change in PANSS-GP,SNP_A-2070454 (NKX2-5) genotype nonBB* (lowest response),−4.20
same,mean of change in PANSS-GP,SNP_A-2076797 (NUDT9P1) genotype A_A,−2.80
same,mean of change in PANSS-GP,SNP_A-2076797 (NUDT9P1) genotype A_B** (highest response),−8.23
same,mean of change in PANSS-GP,SNP_A-2076797 (NUDT9P1) genotype B_B,−2.42
same,mean of change in PANSS-GP,SNP_A-2076797 (NUDT9P1) genotype nonAB* (lowest response),−2.62
same,mean of change in PANSS-GP,SNP_A-2103099 (HTR1A) genotype A_A,−7.79
same,mean of change in PANSS-GP,SNP_A-2103099 (HTR1A) genotype A_B* (lowest response),−3.42
same,mean of change in PANSS-GP,SNP_A-2103099 (HTR1A) genotype B_B,−6.80
same,mean of change in PANSS-GP,SNP_A-2103099 (HTR1A) genotype nonAB** (highest response),−7.16
same,mean of change in PANSS-GP,SNP_A-2120958 genotype A_A,−5.90
same,mean of change in PANSS-GP,SNP_A-2120958 genotype A_B,−6.13
same,mean of change in PANSS-GP,SNP_A-2120958 genotype B_B* (lowest response),1.80
same,mean of change in PANSS-GP,SNP_A-2120958 genotype nonBB** (highest response),−5.99
same,mean of change in PANSS-GP,SNP_A-2170121 (C6) genotype A_A,−3.40
same,mean of change in PANSS-GP,SNP_A-2170121 (C6) genotype A_B** (highest response),−10.21
same,mean of change in PANSS-GP,SNP_A-2170121 (C6) genotype B_B,−5.25
same,mean of change in PANSS-GP,SNP_A-2170121 (C6) genotype nonAB* (lowest response),−3.57
same,mean of change in PANSS-GP,SNP_A-2274533 (LZTS1) genotype A_A** (highest response),−7.04
same,mean of change in PANSS-GP,SNP_A-2274533 (LZTS1) genotype A_B,−2.16
same,mean of change in PANSS-GP,SNP_A-2274533 (LZTS1) genotype B_B,−2.33
same,mean of change in PANSS-GP,SNP_A-2274533 (LZTS1) genotype nonAA* (lowest response),−2.20
same,mean of change in PANSS-GP,SNP_A-2283283 (XKR4) genotype A_A* (lowest response),−0.58
same,mean of change in PANSS-GP,SNP_A-2283283 (XKR4) genotype A_B,−6.49
same,mean of change in PANSS-GP,SNP_A-2283283 (XKR4) genotype B_B,−6.90
same,mean of change in PANSS-GP,SNP_A-2283283 (XKR4) genotype nonAA** (highest response),−6.66
same,mean of change in PANSS-GP,SNP_A-2284243 (GRIA4) genotype A_A,−6.57
same,mean of change in PANSS-GP,SNP_A-2284243 (GRIA4) genotype A_B,−6.77
same,mean of change in PANSS-GP,SNP_A-2284243 (GRIA4) genotype B_B* (lowest response),−0.77
same,mean of change in PANSS-GP,SNP_A-2284243 (GRIA4) genotype nonBB** (highest response),−6.69
same,mean of change in PANSS-GP,SNP_A-4204396 (CDH13) genotype A_A,−5.87
same,mean of change in PANSS-GP,SNP_A-4204396 (CDH13) genotype A_B,−5.99
same,mean of change in PANSS-GP,SNP_A-4204396 (CDH13) genotype B_B* (lowest response),1.39
same,mean of change in PANSS-GP,SNP_A-4204396 (CDH13) genotype nonBB** (highest response),−5.91
same,mean of change in PANSS-GP,SNP_A-4212785 (PPP1R3B) genotype A_A* (lowest response),15.61
same,mean of change in PANSS-GP,SNP_A-4212785 (PPP1R3B) genotype A_B,−5.99
same,mean of change in PANSS-GP,SNP_A-4212785 (PPP1R3B) genotype B_B,−5.84
same,mean of change in PANSS-GP,SNP_A-4212785 (PPP1R3B) genotype nonAA** (highest response),−5.89
same,mean of change in PANSS-GP,SNP_A-4230979 (ASB3) genotype A_A,−1.74
same,mean of change in PANSS-GP,SNP_A-4230979 (ASB3) genotype A_B,−3.42
same,mean of change in PANSS-GP,SNP_A-4230979 (ASB3) genotype B_B** (highest response),−8.85
same,mean of change in PANSS-GP,SNP_A-4230979 (ASB3) genotype nonBB* (lowest response),−3.07
same,mean of change in PANSS-GP,SNP_A-4256833 (MLCK) genotype A_A,−7.14
same,mean of change in PANSS-GP,SNP_A-4256833 (MLCK) genotype A_B* (lowest response),−2.62
same,mean of change in PANSS-GP,SNP_A-4256833 (MLCK) genotype B_B,−6.45
same,mean of change in PANSS-GP,SNP_A-4256833 (MLCK) genotype nonAB** (highest response),−6.49
same,mean of change in PANSS-GP,SNP_A-4258279 (RRM1) genotype A_A,−4.64
same,mean of change in PANSS-GP,SNP_A-4258279 (RRM1) genotype A_B* (lowest response),−0.66
same,mean of change in PANSS-GP,SNP_A-4258279 (RRM1) genotype B_B,−6.29
same,mean of change in PANSS-GP,SNP_A-4258279 (RRM1) genotype nonAB** (highest response),−6.27
